# In publication PMC11864979, “First-in-class ultralong-target-residence-time p38α inhibitors as a mitosis-targeted therapy for colorectal cancer” (Nature Cancer, 2025):
# Read-outs that look alike come from different tables or passages of the source.
# How the values were obtained:
# Test in all cases: selectivity profiling in a panel of 340 wild-type kinases (Reaction Biology Europe)
# Assay type in all cases: binding
# 340 wild-type kinases [1] = target: T1, 340 wild-type kinases (Homo sapiens, UniProt Q13188)
# T1 construct: purchased Reaction Biology Europe
# T1 sequence (Q13188 1-491): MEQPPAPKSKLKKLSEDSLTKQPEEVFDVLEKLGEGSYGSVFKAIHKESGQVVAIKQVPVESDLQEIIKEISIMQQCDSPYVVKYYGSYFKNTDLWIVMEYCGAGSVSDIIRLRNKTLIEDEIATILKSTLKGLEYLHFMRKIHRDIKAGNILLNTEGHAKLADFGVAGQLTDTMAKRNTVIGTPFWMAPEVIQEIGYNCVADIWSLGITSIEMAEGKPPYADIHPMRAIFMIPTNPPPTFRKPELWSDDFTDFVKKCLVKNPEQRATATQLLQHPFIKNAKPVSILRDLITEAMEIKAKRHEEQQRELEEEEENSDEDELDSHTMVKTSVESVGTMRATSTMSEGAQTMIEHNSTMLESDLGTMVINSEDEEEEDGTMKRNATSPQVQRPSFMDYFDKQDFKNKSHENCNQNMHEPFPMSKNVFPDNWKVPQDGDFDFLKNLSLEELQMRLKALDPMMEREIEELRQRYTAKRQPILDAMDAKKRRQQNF
# 340 wild-type kinases [2] = target: T2, 340 wild-type kinases (Homo sapiens, UniProt P07948)
# T2 construct: purchased Reaction Biology Europe
# 340 wild-type kinases [3] = target: T3, 340 wild-type kinases (Homo sapiens, UniProt Q12866)
# T3 construct: purchased Reaction Biology Europe
# T3 sequence (Q12866 21-999): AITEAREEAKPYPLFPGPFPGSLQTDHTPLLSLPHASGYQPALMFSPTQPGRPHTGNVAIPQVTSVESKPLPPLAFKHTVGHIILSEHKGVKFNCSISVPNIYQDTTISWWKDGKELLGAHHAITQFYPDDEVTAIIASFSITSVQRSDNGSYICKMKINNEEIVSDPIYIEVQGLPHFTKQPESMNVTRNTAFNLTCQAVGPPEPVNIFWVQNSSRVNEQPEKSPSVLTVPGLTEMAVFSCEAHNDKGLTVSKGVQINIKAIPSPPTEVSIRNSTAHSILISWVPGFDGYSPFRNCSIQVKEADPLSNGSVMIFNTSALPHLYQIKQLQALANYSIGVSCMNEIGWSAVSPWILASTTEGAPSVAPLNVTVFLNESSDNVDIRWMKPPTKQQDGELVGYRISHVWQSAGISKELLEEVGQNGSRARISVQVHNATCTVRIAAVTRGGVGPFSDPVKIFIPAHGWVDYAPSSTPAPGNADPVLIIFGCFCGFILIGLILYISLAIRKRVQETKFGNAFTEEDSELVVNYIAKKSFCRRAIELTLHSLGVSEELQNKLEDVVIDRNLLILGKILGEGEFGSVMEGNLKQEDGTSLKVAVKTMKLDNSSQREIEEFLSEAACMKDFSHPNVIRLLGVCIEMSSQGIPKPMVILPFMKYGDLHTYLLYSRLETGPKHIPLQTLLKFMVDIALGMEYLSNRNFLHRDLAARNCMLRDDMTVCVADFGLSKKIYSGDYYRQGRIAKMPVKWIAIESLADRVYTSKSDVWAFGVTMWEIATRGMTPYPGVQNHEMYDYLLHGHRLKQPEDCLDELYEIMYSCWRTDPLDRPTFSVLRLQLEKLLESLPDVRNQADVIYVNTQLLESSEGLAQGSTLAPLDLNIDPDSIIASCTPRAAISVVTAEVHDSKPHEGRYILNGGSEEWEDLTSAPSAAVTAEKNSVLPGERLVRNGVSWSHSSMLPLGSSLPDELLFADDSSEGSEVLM
# 340 wild-type kinases [4] = target: T4, 340 wild-type kinases (Homo sapiens, UniProt Q15418)
# T4 construct: purchased Reaction Biology Europe
# 340 wild-type kinases [5] = target: T5, 340 wild-type kinases (Homo sapiens, UniProt P12931)
# T5 construct: purchased Reaction Biology Europe
# 340 wild-type kinases [6] = target: T6, 340 wild-type kinases (Homo sapiens, UniProt P11362)
# T6 construct: purchased Reaction Biology Europe
# 340 wild-type kinases [7] = target: T7, 340 wild-type kinases (Homo sapiens, UniProt P04626)
# T7 construct: purchased Reaction Biology Europe
# T7 sequence (P04626 23-1255): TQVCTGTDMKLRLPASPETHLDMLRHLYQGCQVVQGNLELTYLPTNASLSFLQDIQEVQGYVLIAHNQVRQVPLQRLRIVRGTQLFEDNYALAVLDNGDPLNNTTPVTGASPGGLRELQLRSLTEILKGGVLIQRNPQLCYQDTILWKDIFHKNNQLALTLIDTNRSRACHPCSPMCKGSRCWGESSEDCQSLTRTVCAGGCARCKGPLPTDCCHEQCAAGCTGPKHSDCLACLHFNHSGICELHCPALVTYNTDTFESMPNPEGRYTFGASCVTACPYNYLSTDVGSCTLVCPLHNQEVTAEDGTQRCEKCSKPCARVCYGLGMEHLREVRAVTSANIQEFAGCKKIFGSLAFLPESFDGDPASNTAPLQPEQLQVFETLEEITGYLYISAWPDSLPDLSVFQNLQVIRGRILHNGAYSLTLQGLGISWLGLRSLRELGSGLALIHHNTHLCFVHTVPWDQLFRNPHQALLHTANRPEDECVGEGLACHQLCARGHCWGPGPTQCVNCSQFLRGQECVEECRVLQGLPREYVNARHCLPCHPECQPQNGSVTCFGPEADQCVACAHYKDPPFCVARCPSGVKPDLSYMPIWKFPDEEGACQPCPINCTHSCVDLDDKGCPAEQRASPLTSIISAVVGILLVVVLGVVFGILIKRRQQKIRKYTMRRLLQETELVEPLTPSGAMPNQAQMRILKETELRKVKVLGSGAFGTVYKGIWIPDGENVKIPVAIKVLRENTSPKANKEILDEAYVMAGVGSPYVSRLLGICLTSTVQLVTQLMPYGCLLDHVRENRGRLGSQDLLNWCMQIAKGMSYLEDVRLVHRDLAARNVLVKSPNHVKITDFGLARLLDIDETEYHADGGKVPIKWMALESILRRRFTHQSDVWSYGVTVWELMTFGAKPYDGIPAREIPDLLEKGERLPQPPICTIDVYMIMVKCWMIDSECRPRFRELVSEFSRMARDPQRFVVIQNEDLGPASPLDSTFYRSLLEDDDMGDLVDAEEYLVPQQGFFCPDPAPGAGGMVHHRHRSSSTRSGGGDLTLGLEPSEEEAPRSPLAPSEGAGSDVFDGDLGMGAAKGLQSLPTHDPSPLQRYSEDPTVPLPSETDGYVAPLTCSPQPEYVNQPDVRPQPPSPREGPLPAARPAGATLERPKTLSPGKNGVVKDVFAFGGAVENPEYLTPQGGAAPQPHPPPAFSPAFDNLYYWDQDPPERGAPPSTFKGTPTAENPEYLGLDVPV
# T2 sequence (P07948 whole entry): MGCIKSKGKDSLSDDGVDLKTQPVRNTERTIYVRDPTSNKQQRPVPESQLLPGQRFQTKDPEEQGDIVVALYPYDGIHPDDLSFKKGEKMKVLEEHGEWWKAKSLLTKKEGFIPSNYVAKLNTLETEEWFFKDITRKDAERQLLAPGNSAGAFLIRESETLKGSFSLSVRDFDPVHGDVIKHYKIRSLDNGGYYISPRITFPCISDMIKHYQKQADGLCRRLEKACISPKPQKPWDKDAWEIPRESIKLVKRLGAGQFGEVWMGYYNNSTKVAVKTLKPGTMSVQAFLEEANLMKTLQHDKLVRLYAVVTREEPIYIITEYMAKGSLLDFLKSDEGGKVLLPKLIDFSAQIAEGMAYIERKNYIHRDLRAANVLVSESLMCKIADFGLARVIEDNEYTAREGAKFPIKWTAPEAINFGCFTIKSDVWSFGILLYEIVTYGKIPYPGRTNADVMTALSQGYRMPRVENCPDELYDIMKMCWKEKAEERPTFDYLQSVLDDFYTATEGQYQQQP
# T5 sequence (P12931 whole entry): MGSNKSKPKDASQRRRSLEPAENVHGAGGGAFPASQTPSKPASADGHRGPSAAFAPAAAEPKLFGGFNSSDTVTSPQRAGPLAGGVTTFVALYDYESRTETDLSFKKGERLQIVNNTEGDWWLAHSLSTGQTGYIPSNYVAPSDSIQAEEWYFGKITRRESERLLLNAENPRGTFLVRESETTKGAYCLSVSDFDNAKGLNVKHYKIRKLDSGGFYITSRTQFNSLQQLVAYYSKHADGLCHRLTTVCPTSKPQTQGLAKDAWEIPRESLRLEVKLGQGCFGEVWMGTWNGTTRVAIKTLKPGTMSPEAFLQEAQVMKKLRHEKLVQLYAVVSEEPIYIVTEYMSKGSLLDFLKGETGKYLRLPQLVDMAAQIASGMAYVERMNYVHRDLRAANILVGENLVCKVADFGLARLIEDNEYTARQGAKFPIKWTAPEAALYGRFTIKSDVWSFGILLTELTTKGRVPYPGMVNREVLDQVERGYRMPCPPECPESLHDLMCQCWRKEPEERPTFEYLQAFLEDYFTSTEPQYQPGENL
# T4 sequence (Q15418 whole entry): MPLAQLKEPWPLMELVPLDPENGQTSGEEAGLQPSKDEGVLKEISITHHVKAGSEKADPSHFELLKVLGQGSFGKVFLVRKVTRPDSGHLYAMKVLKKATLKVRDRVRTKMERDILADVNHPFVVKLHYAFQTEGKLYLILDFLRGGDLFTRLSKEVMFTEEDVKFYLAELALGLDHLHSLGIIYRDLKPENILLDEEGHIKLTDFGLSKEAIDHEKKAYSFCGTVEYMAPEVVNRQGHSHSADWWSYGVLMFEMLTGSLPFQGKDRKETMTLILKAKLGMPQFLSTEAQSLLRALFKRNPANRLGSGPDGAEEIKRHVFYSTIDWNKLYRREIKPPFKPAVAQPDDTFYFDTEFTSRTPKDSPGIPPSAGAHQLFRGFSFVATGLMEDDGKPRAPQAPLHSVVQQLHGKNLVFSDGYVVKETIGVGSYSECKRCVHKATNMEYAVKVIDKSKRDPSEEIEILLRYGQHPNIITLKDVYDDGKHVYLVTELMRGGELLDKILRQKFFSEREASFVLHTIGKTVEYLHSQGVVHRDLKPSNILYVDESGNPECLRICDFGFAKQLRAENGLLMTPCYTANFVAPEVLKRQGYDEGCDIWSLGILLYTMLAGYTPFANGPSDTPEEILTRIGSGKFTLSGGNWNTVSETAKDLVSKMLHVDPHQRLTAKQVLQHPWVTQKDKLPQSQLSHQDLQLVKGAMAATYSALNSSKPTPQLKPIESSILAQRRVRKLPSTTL
# T6 sequence (P11362 22-822): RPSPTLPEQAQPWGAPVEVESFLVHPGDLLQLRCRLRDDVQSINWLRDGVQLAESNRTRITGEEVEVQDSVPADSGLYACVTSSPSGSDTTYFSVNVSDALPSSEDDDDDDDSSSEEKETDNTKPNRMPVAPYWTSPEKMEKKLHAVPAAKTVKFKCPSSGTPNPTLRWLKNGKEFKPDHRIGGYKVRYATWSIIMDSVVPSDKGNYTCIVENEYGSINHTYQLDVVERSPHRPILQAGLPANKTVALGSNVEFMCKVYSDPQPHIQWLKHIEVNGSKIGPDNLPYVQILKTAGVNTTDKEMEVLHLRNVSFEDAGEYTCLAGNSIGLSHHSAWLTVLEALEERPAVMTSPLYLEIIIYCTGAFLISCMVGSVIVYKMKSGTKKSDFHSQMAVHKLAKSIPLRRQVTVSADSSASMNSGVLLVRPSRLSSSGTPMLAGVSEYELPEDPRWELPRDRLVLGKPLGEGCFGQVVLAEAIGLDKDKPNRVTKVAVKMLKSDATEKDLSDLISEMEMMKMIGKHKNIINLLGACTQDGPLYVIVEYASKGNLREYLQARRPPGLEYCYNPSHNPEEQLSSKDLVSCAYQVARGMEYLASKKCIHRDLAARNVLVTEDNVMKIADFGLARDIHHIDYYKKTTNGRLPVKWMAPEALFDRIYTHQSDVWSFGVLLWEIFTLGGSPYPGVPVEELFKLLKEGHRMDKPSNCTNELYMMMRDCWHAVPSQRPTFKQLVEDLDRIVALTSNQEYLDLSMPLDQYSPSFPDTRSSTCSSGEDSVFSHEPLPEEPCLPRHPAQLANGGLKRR
compound,measurement,setting,value
CNC(=O)c1ccc2c(c1)C(=O)c1ccc(Nc3ccc(F)c(NC(=O)C4CC4)c3)cc1CC2 [Compound 2015],remaining activity at 0.2 µM,"340 wild-type kinases [1]; 0.2 µM 2015, read-out: MST2 residual activity",115%
same,remaining activity at 1 µM,"340 wild-type kinases [1]; 1 µM 2015, read-out: MST2 residual activity",106%
same,remaining activity at 0.2 µM,"340 wild-type kinases [1]; MST2, 0.2 µM, read-out: residual activity",115%
same,remaining activity at 1 µM,"340 wild-type kinases [1]; MST2, 1 µM, read-out: residual activity",106%
same,remaining activity at 0.2 µM,"340 wild-type kinases [2]; 0.2 µM 2015, read-out: LYN residual activity",109%
same,remaining activity at 1 µM,"340 wild-type kinases [2]; 1 µM 2015, read-out: LYN residual activity",82.5%
same,remaining activity at 0.2 µM,"340 wild-type kinases [2]; LYN, 0.2 µM, read-out: residual activity",109%
same,remaining activity at 1 µM,"340 wild-type kinases [2]; LYN, 1 µM, read-out: residual activity",82.5%
same,remaining activity at 0.2 µM,"340 wild-type kinases [3]; 0.2 µM 2015, read-out: MERTK residual activity",88.3%
same,remaining activity at 1 µM,"340 wild-type kinases [3]; 1 µM 2015, read-out: MERTK residual activity",97%
same,remaining activity at 0.2 µM,"340 wild-type kinases [3]; MERTK, 0.2 µM, read-out: residual activity",88.3%
same,remaining activity at 1 µM,"340 wild-type kinases [3]; MERTK, 1 µM, read-out: residual activity",97%
same,remaining activity at 0.2 µM,"340 wild-type kinases [4]; 0.2 µM 2015, read-out: RPS6KA1 residual activity",100%
same,remaining activity at 1 µM,"340 wild-type kinases [4]; 1 µM 2015, read-out: RPS6KA1 residual activity",94.3%
same,remaining activity at 0.2 µM,"340 wild-type kinases [4]; RPS6KA1, 0.2 µM, read-out: residual activity",100%
same,remaining activity at 1 µM,"340 wild-type kinases [4]; RPS6KA1, 1 µM, read-out: residual activity",94.3%
same,remaining activity at 0.2 µM,"340 wild-type kinases [5]; 0.2 µM 2015, read-out: SRC residual activity",105%
same,remaining activity at 1 µM,"340 wild-type kinases [5]; 1 µM 2015, read-out: SRC residual activity",95.5%
same,remaining activity at 0.2 µM,"340 wild-type kinases [5]; SRC, 0.2 µM, read-out: residual activity",105%
same,remaining activity at 1 µM,"340 wild-type kinases [5]; SRC, 1 µM, read-out: residual activity",95.5%
same,remaining activity at 0.2 µM,"340 wild-type kinases [6]; 0.2 µM 2015, read-out: FGFR1 residual activity",105%
same,remaining activity at 1 µM,"340 wild-type kinases [6]; 1 µM 2015, read-out: FGFR1 residual activity",111%
same,remaining activity at 0.2 µM,"340 wild-type kinases [6]; FGFR1, 0.2 µM, read-out: residual activity",105%
same,remaining activity at 1 µM,"340 wild-type kinases [6]; FGFR1, 1 µM, read-out: residual activity",111%
same,remaining activity at 0.2 µM,"340 wild-type kinases [7]; 0.2 µM 2015, read-out: ERBB2 residual activity",105%
same,remaining activity at 1 µM,"340 wild-type kinases [7]; 1 µM 2015, read-out: ERBB2 residual activity",102%
same,remaining activity at 0.2 µM,"340 wild-type kinases [7]; ERBB2, 0.2 µM, read-out: residual activity",105%
same,remaining activity at 1 µM,"340 wild-type kinases [7]; ERBB2, 1 µM, read-out: residual activity",102%
